The numbers were not newly measured in US5798310A, “Glyphosate compositions and their use” (Monsanto Europe S.A., priority 1995, dated 1998), which cites them from elsewhere.

The conditions of this data set: literature.

Take `N.N.O=S(=O)(O)O` [ammonium sulphate]: the “effect on herbicidal activity of glyphosate” value is recorded as “further enhance the herbicidal activity”.

`N#CS` [ammonium thiocyanate]: the “effect on herbicidal activity of glyphosate” value is “further enhance the herbicidal activity”.
